Earlier results as cited in patent US7767208B2, “Noninvasive vascular therapy” (Light Sciences Oncology, Inc., priority 1999, dated 2010).

Conditions: systemically administered sensitizer in clinical use; for sensitize the skin for: duration of skin sensitization

Row | Compound | sensitize the skin for | photosensitivity lasting (skin photosensitivity)
1 | CCOC(=O)C1=Cc2c3nc(cc4nc(cc5[n-]c(cc6[n-]c2c(C)c6CC)c(C)c5CC)C(C)=C4CC)[C@@H](C)[C@]13CC.[Cl-].[Cl-].[Sn] (racemic) [Purlytin] | several weeks | 
2 | Oc1cccc(-c2c3nc(c(-c4cccc(O)c4)c4ccc([nH]4)c(-c4cccc(O)c4)c4nc(c(-c5cccc(O)c5)c5ccc2[nH]5)CC4)C=C3)c1 [Foscan] | several weeks | 
3 | sodium porfimer [Photophrin] |  | up to 6 weeks
